Tested on: PMA-induced oedema in mouse ear
Experiment: Acute contact dermatitis: inhibition of PMA/TPA-induced oedema in mouse ear
Assay type: in vivo
Conditions: 6 h, CD1 mice, 500 μg/ear topical in TPDS, 30 minutes before TPA 0.01% in acetone, ear weight difference after six hours vs TPA only
Experimental: The antiinflammatory activity has been evaluated as inhibition of PMA-induced oedema in mouse ear (Phorbol Myristate Acetate).
A) Acute contact dermatitis.
Groups of 5 CD1 mice (18-24 g) were used.
All the macrolide derivatives were dissolved in the Trans-phase Delivery System (TPDS) vehicle containing 10% benzyl alcohol, 40% acetone and 50% isopropanol.
15 microliters of the compounds (500 μg/ear), dissolved in TPDS, were applied topically onto the inner surface of an ear; after 30 minutes 12 microliters of a solution of acetate of tetradecanoyl-phorbol (TPA) with the concentration of 0.01% dissolved in acetone were applied onto the same area.
After six hours the animals were sacrified by inhalation of CO2.
The oedema level was calculated by detracting the weight of a defined portion of auricular ala of the not treated ear to the one of the treated controlateral ear. To determine the oedema remission level the weight difference of the groups treated with TPA+macrolides was compared with the ones of those treated with TPA only. The activity of the macrolides was measured by using the modified method of Zunic et coll. (1998): MDL (Lysyl) GDP, a non-toxil muramyl dipeptide derivative inhibits, cytokine production by activated macrophages and protects mice from phorbol ester-and oxazolone-induced inflammation (J. Invest Dermatol., 111(1), 77-82).
The data relating to erythromycin concern the treatment in single dose with 500 μg/ear.

## CC[C@H]1OC(=O)[C@H](C)[C@@H](O)[C@H](C)[C@@H](O[C@@H]2O[C@H](C)C[C@H](N(C)C(=O)c3cccnc3)[C@H]2O)C(C)(O)C[C@@H](C)/C(=N\O)[C@H](C)[C@@H](O)[C@]1(C)O (stereo partly drawn) [Compound 22]
  inhibition in vivo at 500 µg/ear: 74.3%

## CC[C@H]1OC(=O)[C@H](C)[C@@H](O)[C@H](C)[C@@H](O[C@@H]2O[C@H](C)C[C@H](N(C)C(=O)c3ccco3)[C@H]2O)C(C)(O)C[C@@H](C)[C@H](O)[C@H](C)[C@@H](O)[C@]1(C)O (stereo partly drawn) [Compound 4]
  inhibition in vivo at 500 µg/ear: 64.4%

## CC[C@H]1OC(=O)[C@H](C)[C@@H](O)[C@H](C)[C@@H](O[C@@H]2O[C@H](C)C[C@H](N(C)C(=O)COCc3cc(OC)ccn3)[C@H]2O)C(C)(O)C[C@@H](C)C(O)[C@H](C)[C@@H](O)[C@]1(C)O (stereo partly drawn) [Compound 1]
  inhibition in vivo at 500 µg/ear: 61.5%

## CC[C@H]1OC(=O)[C@H](C)[C@@H](O)[C@H](C)[C@@H](O[C@@H]2O[C@H](C)C[C@H](N(C)S(=O)(=O)c3ccc(C)cc3)[C@H]2O)C(C)(O)C[C@@H](C)[C@H](O)[C@H](C)[C@@H](O)[C@]1(C)O (stereo partly drawn) [Compound 12]
  inhibition in vivo at 500 µg/ear: 72.2%

## CC[C@H]1OC(=O)[C@H](C)[C@@H](O)[C@H](C)[C@@H](O[C@@H]2O[C@H](C)C[C@H](N(C)C(C)=O)[C@H]2O)C(C)(O)C[C@@H](C)/C(=N\OC(C)=O)[C@H](C)[C@@H](O)[C@]1(C)O (stereo partly drawn) [Compound 18]
  inhibition in vivo at 500 µg/ear: 49%

## CC[C@H]1OC(=O)[C@H](C)[C@@H](O)[C@H](C)[C@@H](O[C@@H]2O[C@H](C)C[C@H](N(C)C(=O)c3ccc(OC)cc3)[C@H]2O)C(C)(O)C[C@@H](C)/C(=N\OC(=O)c2ccc(OC)cc2)[C@H](C)[C@@H](O)[C@]1(C)O (stereo partly drawn) [Compound 21]
  inhibition in vivo at 500 µg/ear: 53.3%

## CC[C@H]1OC(=O)[C@H](C)[C@@H](O)[C@H](C)[C@@H](O[C@@H]2O[C@H](C)C[C@H](N(C)C(=O)c3ccc(OC)cc3)[C@H]2O)C(C)(O)C[C@@H](C)/C(=N\O)[C@H](C)[C@@H](O)[C@]1(C)O (stereo partly drawn) [Compound 20]
  inhibition in vivo at 500 µg/ear: 83.2%

## CCNC(=O)N(C)[C@H]1C[C@@H](C)O[C@@H](O[C@@H]2[C@@H](C)[C@H](O)[C@@H](C)C(=O)O[C@H](CC)[C@@](C)(O)[C@H](O)[C@@H](C)[C@@H](O)[C@H](C)CC2(C)O)[C@@H]1O (stereo partly drawn) [Compound 13]
  inhibition in vivo at 500 µg/ear: 80.3%

## CC[C@H]1OC(=O)[C@H](C)[C@@H](O)[C@H](C)[C@@H](O[C@@H]2O[C@H](C)C[C@H](N(C)C(=O)C(C)(C)C)[C@H]2O)C(C)(O)C[C@@H](C)/C(=N\OC(=O)C(C)(C)C)[C@H](C)[C@@H](O)[C@]1(C)O (stereo partly drawn) [Compound 17]
  inhibition in vivo at 500 µg/ear: 51.2%

## CC[C@H]1OC(=O)[C@H](C)[C@@H](O[C@H]2C[C@@](C)(OC)[C@@H](O)[C@H](C)O2)[C@H](C)[C@@H](O[C@@H]2O[C@H](C)C[C@H](N(C)C)[C@H]2O)[C@](C)(O)C[C@@H](C)CN(C)[C@H](C)[C@@H](O)[C@]1(C)O [Azithromycin, reference compound]
  inhibition in vivo at 500 µg/ear: 40%

## CC[C@H]1OC(=O)[C@H](C)[C@@H](O)[C@H](C)[C@@H](O[C@@H]2O[C@H](C)C[C@H](N(C)C(=O)c3cccnc3)[C@H]2O)C(C)(O)C[C@@H](C)[C@H](O)[C@H](C)[C@@H](O)[C@]1(C)O (stereo partly drawn) [Compound 7]
  inhibition in vivo at 500 µg/ear: 46.1%

## CC[C@H]1OC(=O)[C@H](C)[C@@H](O)[C@H](C)[C@@H](O[C@@H]2O[C@H](C)C[C@H](N(C)C(=O)Cc3ccccc3)[C@H]2O)C(C)(O)C[C@@H](C)[C@H](O)[C@H](C)[C@@H](O)[C@]1(C)O (stereo partly drawn) [Compound 2]
  inhibition in vivo at 500 µg/ear: 88.1%

## CC[C@H]1OC(=O)[C@H](C)[C@@H](O)[C@H](C)[C@@H](O[C@@H]2O[C@H](C)C[C@H](N(C)C(=O)CSc3ccccc3)[C@H]2O)C(C)(O)C[C@@H](C)[C@H](O)[C@H](C)[C@@H](O)[C@]1(C)O (stereo partly drawn) [Compound 8]
  inhibition in vivo at 500 µg/ear: 57.6%

## CC[C@H]1OC(=O)[C@H](C)[C@@H](O)[C@H](C)[C@@H](O[C@@H]2O[C@H](C)C[C@H](N(C)S(C)(=O)=O)[C@H]2O)C(C)(O)C[C@@H](C)[C@H](O)[C@H](C)[C@@H](O)[C@]1(C)O (stereo partly drawn) [Compound 11]
  inhibition in vivo at 500 µg/ear: 55.3%

## CC[C@H]1OC(=O)[C@H](C)[C@@H](O)[C@H](C)[C@@H](O[C@@H]2O[C@H](C)C[C@H](N(C)C(=O)c3ccccc3)[C@H]2O)C(C)(OC)C[C@@H](C)C(=O)[C@H](C)[C@@H](O)[C@]1(C)O (stereo partly drawn) [Compound 15]
  inhibition in vivo at 500 µg/ear: 74.3%

## CC[C@H]1OC(=O)[C@H](C)[C@@H](O)[C@H](C)[C@@H](O[C@@H]2O[C@H](C)C[C@H](N(C)C(=O)c3ccc(F)cc3)[C@H]2O)C(C)(OC)C[C@@H](C)C(=O)[C@H](C)[C@@H](O)[C@]1(C)O (stereo partly drawn) [Compound 16]
  inhibition in vivo at 500 µg/ear: 81.1%

## CC[C@H]1OC(=O)[C@H](C)[C@@H](O)[C@H](C)[C@@H](O[C@@H]2O[C@H](C)C[C@H](N(C)C(=O)c3cccnc3Cl)[C@H]2O)C(C)(O)C[C@@H](C)/C(=N\O)[C@H](C)[C@@H](O)[C@]1(C)O (stereo partly drawn) [Compound 28]
  inhibition in vivo at 500 µg/ear: 81.7%

## CC[C@H]1OC(=O)[C@H](C)[C@@H](O[C@H]2C[C@@](C)(OC)[C@@H](O)[C@H](C)O2)[C@H](C)[C@@H](O[C@@H]2O[C@H](C)C[C@H](N(C)C)[C@H]2O)[C@](C)(O)C[C@@H](C)C(=O)[C@H](C)[C@@H](O)[C@]1(C)O [Erythromycin, reference compound]
  inhibition in vivo at 500 µg/ear: 42.5%

## CC[C@H]1OC(=O)[C@H](C)[C@@H](O)[C@H](C)[C@@H](O[C@@H]2O[C@H](C)C[C@H](N(C)C(=O)Nc3ccccc3)[C@H]2O)C(C)(O)C[C@@H](C)[C@H](O)[C@H](C)[C@@H](O)[C@]1(C)O (stereo partly drawn) [Compound 14]
  inhibition in vivo at 500 µg/ear: 89.9%

## CC[C@H]1OC(=O)[C@H](C)[C@@H](O)[C@H](C)[C@@H](O[C@@H]2O[C@H](C)C[C@H](N(C)C(=O)C3CCCCC3)[C@H]2O)C(C)(O)C[C@@H](C)[C@H](O)[C@H](C)[C@@H](O)[C@]1(C)O (stereo partly drawn) [Compound 10]
  inhibition in vivo at 500 µg/ear: 89.2%

## CC[C@H]1OC(=O)[C@H](C)[C@@H](O)[C@H](C)[C@@H](O[C@@H]2O[C@H](C)C[C@H](N(C)C(=O)Cc3cccs3)[C@H]2O)C(C)(O)C[C@@H](C)/C(=N\O)[C@H](C)[C@@H](O)[C@]1(C)O (stereo partly drawn) [Compound 25]
  inhibition in vivo at 500 µg/ear: 79.3%

## CC[C@H]1OC(=O)[C@H](C)[C@@H](O)[C@H](C)[C@@H](O[C@@H]2O[C@H](C)C[C@H](N(C)C(=O)c3cccs3)[C@H]2O)C(C)(O)C[C@@H](C)/C(=N\O)[C@H](C)[C@@H](O)[C@]1(C)O (stereo partly drawn) [Compound 23]
  inhibition in vivo at 500 µg/ear: 86.8%

## CC[C@H]1OC(=O)[C@H](C)[C@@H](O)[C@H](C)[C@@H](O[C@@H]2O[C@H](C)C[C@H](N(C)C(=O)COC)[C@H]2O)C(C)(O)C[C@@H](C)/C(=N\O)[C@H](C)[C@@H](O)[C@]1(C)O (stereo partly drawn) [Compound 19]
  inhibition in vivo at 500 µg/ear: 86.1%

## CC[C@H]1OC(=O)[C@H](C)[C@@H](O)[C@H](C)[C@@H](O[C@@H]2O[C@H](C)C[C@H](N(C)C(=O)c3ccc(C)cc3)[C@H]2O)C(C)(O)C[C@@H](C)[C@H](O)[C@H](C)[C@@H](O)[C@]1(C)O (stereo partly drawn) [Compound 6]
  inhibition in vivo at 500 µg/ear: 77.8%

## CC[C@H]1OC(=O)[C@H](C)[C@@H](O)[C@H](C)[C@@H](O[C@@H]2O[C@H](C)C[C@H](N(C)C(=O)Cc3cccs3)[C@H]2O)C(C)(O)C[C@@H](C)[C@H](O)[C@H](C)[C@@H](O)[C@]1(C)O (stereo partly drawn) [Compound 5]
  inhibition in vivo at 500 µg/ear: 53.7%

## CCCCCCCC(=O)N(C)[C@H]1C[C@@H](C)O[C@@H](O[C@@H]2[C@@H](C)[C@H](O)[C@@H](C)C(=O)O[C@H](CC)[C@@](C)(O)[C@H](O)[C@@H](C)[C@@H](O)[C@H](C)CC2(C)O)[C@@H]1O (stereo partly drawn) [Compound 9]
  inhibition in vivo at 500 µg/ear: 74.2%

## CC[C@H]1OC(=O)[C@H](C)[C@@H](O)[C@H](C)[C@@H](O[C@@H]2O[C@H](C)C[C@H](N(C)C(=O)C(C)(C)C)[C@H]2O)C(C)(O)C[C@@H](C)/C(=N\O)[C@H](C)[C@@H](O)[C@]1(C)O (stereo partly drawn) [Compound 26]
  inhibition in vivo at 500 µg/ear: 68.6%

## CC[C@H]1OC(=O)[C@H](C)[C@@H](O)[C@H](C)[C@@H](O[C@@H]2O[C@H](C)C[C@H](N(C)C(=O)c3cccs3)[C@@H]2O)[C@](C)(O)C[C@H](C)/C(=N\OC(=O)c2cccs2)[C@@H](C)[C@H](O)[C@]1(C)O [Compound 24]
  inhibition in vivo at 500 µg/ear: 41.3%

## CC[C@H]1OC(=O)[C@H](C)[C@@H](O)[C@H](C)[C@@H](O[C@@H]2O[C@H](C)C[C@H](N(C)C(=O)Cc3cccs3)[C@H]2O)C(C)(O)C[C@@H](C)/C(=N\OC(=O)Cc2cccs2)[C@H](C)[C@@H](O)[C@]1(C)O (stereo partly drawn) [Compound 27]
  inhibition in vivo at 500 µg/ear: 61.4%

## CC[C@H]1OC(=O)[C@H](C)[C@@H](O)[C@H](C)[C@@H](O[C@@H]2O[C@H](C)C[C@H](N(C)C(=O)c3ccccc3)[C@H]2O)C(C)(O)C[C@@H](C)[C@H](O)[C@H](C)[C@@H](O)[C@]1(C)O (stereo partly drawn) [Compound 3]
  inhibition in vivo at 500 µg/ear: 89.9%
